From patent US20230013402A1, “REGENERATING FUNCTIONS AND PHENOTYPES OF CONNECTIVE TISSUE THROUGH NPAS2 SUPPRESSION” (The Regents of the University of California, priority 2019, published 2023)
“Also recorded” adds a separate entry of the source.

Tests used:
[1] = tested on: Npas2-LacZ reporter gene (Npas2 expression); experiment: High throughput screening of FDA Approved Drug Library for Npas2-LacZ reporter expression; format: cell-based, mouse; settings: Table 1
Excerpt: (§1) Mouse MSC carrying Npas2-LacZ reporter gene, as described by Hassan N, et al., PLoS One. 2017; 12(8):e0183359, which is incorporated by reference herein in its entirety, was immortalized using SV40 in order to accommodate a large-scale HTS. […] This cell system was used to screen FDA Approved Drug Library (1120 compounds). The same library was also screened for cell viability by Calcein AM Hoechst 33342 staining Cell migration assays using the Oris™ Pro Cell Migration Assay plate, as described by Joy M E et al., PloS one. 2014; 9(2):e88350, which is incorporated by reference herein in its entirety, was used for a high-throughput migration assay using human skin fibroblasts
(§2) The combined Z score was used to identify hit compounds (Table 1).

[2] = tested on: ligature-induced periodontitis; experiment: Modified mouse ligature-induced periodontitis model (ligature removed at Day 14, evaluation at D28); format: in vivo; settings: topical to palatal gingiva once a week, listed as Dwn1
Excerpt: FIGS. 12A-12H show the effect of Dwn1 in the modified ligature-induced periodontitis in mice.
The selected highest hit compound Dwn1 (Reserpine) of Example 2 was applied to the well established ligature-induced periodontitis model with modification. After periodontitis was established at Day 14, the ligature was revoved from mouse molar mimicking non-invasive periodontits treatment: scaling and root planing (SRP) (FIGS. 12A-12D). Dwn1 was formulated in ABR LLC's propritery trans-epithelial deformable nano-scale vesicle (DNV) (57) and topically adminstered to the palatal gingival tissue once a week (FIG. 12E). […] The in vivo regenerative efficacy of Dwn1 (Reserpine) was strongly indicated.
From FDA Approved Drug Library (1120 compounds) and LOPAC Library (1280 compounds), a list of chemical compounds that modulated Npas2-LacZ expression was identified. […] Dwn1 was formulated for topical application to palatal gingiva. After 14 days of periodontitis induction, the ligature was removed and Dwn1 was topically applied to the palatal gingiva once a week (FIG. 16A).

human skin fibroblasts = experiment: High-throughput cell migration assay (Oris Pro Cell Migration Assay plate) / standardized viability; format: cell-based; settings: Table 1; HTS of FDA Drug Library
Excerpt: as §1, §2

`COC(=O)[C@H]1[C@H]2C[C@@H]3c4[nH]c5cc(OC)ccc5c4CCN3C[C@H]2C[C@@H](OC(=O)c2cc(OC)c(OC)c(OC)c2)[C@@H]1OC` [Reserpine] was tested, and the “NPAS2 Z Score” value ([1]; HTS of FDA Drug Library) was −2.57, the “NPAS Z × ViabilityZ” value ([1]; combined Z score (product)) was −10.77 and the “Gingival epithelium / gingival defect” value [2] was “normalized gingival epithelium; also recorded: less visible”. The “Alveolar bone regeneration (microCT bone height)” value ([2]; palatal side) was “increased bone height; also recorded: Alveolar bone regeneration was demonstrated; also recorded: alveolar bone loss was attenuated; also recorded: significant alveolar bone regeneration”, the “Gingival/periodontal collagen with Sharpey's fibers” value ([2]; picrosirius red) was “gingival/PDL connective tissue reconstruction; also recorded: appeared to be reconstructed; also recorded: normalized Sirius red stained gingival collagen arrangement; also recorded: collagen fibers were reorganized” and the “Migration (standardized viability) Z Score” value (human skin fibroblasts) was 4.19.
